# Paper PMC5657837 (Journal of Insect Science, 2014)
# Test system: midgut α-amylase
# Experiment: α-amylase activity of larval midgut homogenate
# Format: biochemical, Mythimna separata
smiles,measurement,value
"O=C1CCC(=O)N1Br [NBS, N-bromosuccinimide]",Ki,2530 nM
